Laboratory results published in patent US7018648B2, “Transdermal device for administering testosterone or one of the derivatives thereof” (Pierre Fabre Medicament, priority 1999, dated 2006).

Tests used:
[1] = Ex vivo permeation on animal skin after pretreatment with promoter compound (permeation index vs blank reference product); format: in vitro ADME; settings: for Permeation index: ratio of cumulative amount of testosterone at 24 hours after skin pretreatment with the compound relative to blank, 1 = no promoting effect
Description: FIG. 1 represents the permeation indices (PIs), also known as the “enhancement factors” for comparing in vitro the promoting effect of different products.
This is the product sold by the company Alza under the brand name Testoderm CIII®. This matrix transdermal device for scrotal application is free of promoters and, consequently, is more particularly suitable for performing in vitro protocols intended to select the best permeation promoters of this active principle.
As regards the second category of products, it is more particularly advantageous to check their permeation-promoting effect with respect to the active principle according to the invention. Ex vivo studies of permeation on animal skin are carried out using a reference product whose kinetics constitute a “blank”, and then after initial pretreatment of the skin with the promoter compound. The ratio of the cumulative amount at 24 hours of the test relative to the “blank” gives the permeation index “PI” factor or “enhancement factor”. A permeation index of close to 1 means that the test product has no promoting effect for the active principle under consideration and under the operating conditions used. A classification is then possible according to the indications of table II below.

[2] = Solubility at saturation of testosterone in solvents/excipients; format: physicochemical
Experimental: Studies for selecting the components of the adhesive matrix other than the actual adhesive are useful and involve solubility and in vitro permeation tests. To evaluate the solubilizing power of different components, solubility studies at saturation are performed.

## CCN(CC)C(=O)c1cccc(C)c1 [DEET, N,N-diethyl-m-toluamide]
[1]; in words
  testosterone permeation-promoting effect: lacks any testosterone-promoting effect

## CCCCCCCCCCCCN1CCCC1=O [Laurylpyrrolidone]
[1]
  Permeation index: 11.27

## C[C@]12CCC(=O)C=C1CC[C@@H]1[C@@H]2CC[C@]2(C)C(O)CC[C@@H]12 (some centres unmarked) [testosterone, 17-hydroxyandrost-4-en-3-one]
[2]; in Cyclohexane
  Solubility at saturation of testosterone: 0.06 % m/m
[2]; in Ethanol
  Solubility at saturation of testosterone: 22.12 % m/m
[2]; in Ethyl acetate
  Solubility at saturation of testosterone: 4.45 % m/m
[2]; in Isopropanol
  Solubility at saturation of testosterone: 12.80 % m/m
[2]; in Laurylpyrrolidone
  Solubility at saturation of testosterone: 15.90 % m/m
[2]; in Lysophosphatidylcholine
  Solubility at saturation of testosterone: 6.96 % m/m
[2]; in Methyl laurate
  Solubility at saturation of testosterone: 1.43 % m/m
[2]; in Polysorbate 80
  Solubility at saturation of testosterone: 2.62 % m/m
[2]; in Sorbitan laurate
  Solubility at saturation of testosterone: 4.12 % m/m
[2]; in Tetrahydrofuran
  Solubility at saturation of testosterone: 27.01 % m/m

## Lysophosphatidylchloline
[1]
  Permeation index: 9.18

## Sorbitan laurate
[1]
  Permeation index: 11.70
